The values that follow come from US10646469B2, “Substituted indole derivatives as dengue viral replication inhibitors” (Janssen Pharmaceuticals, Inc., priority 2016, dated 2020).

In one data set the test system is DENV-2 16681 strain. Kind of data set: DENV-2 antiviral assay (eGFP-labeled virus in Vero cells). The format is cell-based, Dengue virus. The settings on record: DENV-2 16681 eGFP, MOI 0.5, 3 days. A digest of the protocol:
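Vero cells (2500/well) pre-plated with compound (9-step 5-fold series), infected next day with eGFP-labeled DENV-2 16681 at MOI 0.5 in MEM with 2% FCS; 3 days at 37° C. eGFP fluorescence read at 488 nm; inhibition versus virus and cell controls, EC50 by linear interpolation.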

The next data set concerns DENV-1 strain TC974 #666. Kind of data set: Tetravalent RT-qPCR assay, serotype 1. The settings on record: Dengue virus, DENV1, 72 h; RT-qPCR serotype 1 TC974#666, Protocol A, Vero cells, day 3. The format is cell-based. The procedure: (§1) The antiviral activity of the compounds of the invention was tested against DENV-1 strain TC974 #666 (NCPV), DENV-2 strain 16681, DENV-3 strain H87 (NCPV) and DENV-4 strain H241 (NCPV) in a RT-qPCR assay. Therefore, Vero cells were infected with either DENV-1, or -2, or -3, or -4 in the presence or absence of test compounds. At day 3 post-infection, the cells were lysed and cell lysates were used to prepare cDNA of both a viral target (the 3′UTR of DENV; Table 2) and cellular reference gene (β-actin, Table 2). Subsequently, a duplex real time PCR was performed on a Lightcycler480 instrument. The generated Cp value is inversely proportional to the amount of RNA expression of these targets. Inhibition of DENV replication by a test compound results in a shift of Cp's for the 3′UTR gene. On the other hand, if a test compound is toxic to the cells, a similar effect on β-actin expression will be observed. The comparative ΔΔCp method is used to calculate EC50, which is based on the relative gene expression of the target gene (3′UTR) normalized with the cellular housekeeping gene (β-actin). In addition, CC50 values are determined based on the Cp values acquired for the housekeeping gene β-actin.
(§2) The culture medium consisted of minimal essential medium supplemented with 2% of heat-inactivated fetal calf serum, 0.04% gentamycin (50 mg/mL) and 2 mM of L-glutamine. Vero cells, obtained from ECACC, were suspended in culture medium and 75 μL/well was added in 96-well plates (10000 cells/well), which already contain the antiviral compounds. […] In addition, each plate contains wells which are assigned as virus controls (containing cells and virus in the absence of compound) and cell controls (containing cells in the absence of virus and compound). Once the cells were added in the plates, the plates were incubated in a fully humidified incubator (37° C., 5% CO2) until the next day. Dengue viruses serotype-1, 2, 3 and 4 were diluted in order to obtain a Cp of ˜22-24 in the assay. Therefore, 25 μL of virus suspension was added to all the wells containing test compound and to the wells assigned as virus control. In parallel, 25 μL of culture medium was added to the cell controls. Next, the plates were incubated for 3 days in a fully humidified incubator (37° C., 5% CO2). After 3 days, the supernatant was removed from the wells and the cells were washed twice with ice-cold PBS (˜100 μL). The cell pellets within the 96-well plates were stored at −80° C. for at least 1 day. Next, RNA was extracted using the Cells-to-CT™ lysis kit, according to the manufacturer's guideline (Life Technologies). The cell lysates can be stored at −80° C. or immediately used in the reverse transcription step.
(§3) In preparation of the reverse transcription step, mix A (table 3A) was prepared and 7.57 μL/well was dispensed in a 96-well plate. After addition of 5 μL of the cell lysates, a five minute denaturation step at 75° C. was performed (table 3B). Afterwards, 7.43 μL of mix B was added (table 3C) and the reverse transcription step was initiated (table 3D) to generate cDNA.
(§4) Finally, a RT-qPCR mix was prepared, mix C (table 4A), and 22.02 μL/well was dispensed in 96-well LightCycler qPCR plates to which 3 μL of cDNA was added and the qPCR was performed according to the conditions in table 4B on a LightCycler 480.
(§5) Using the LightCycler software and an in-house LIMS system, dose response curves for each compound were calculated and the half maximal effective concentration (EC50) and the half maximal cytotoxic concentration (CC50) were determined (Tables 5-8).
In general terms: Quantitative PCR measures a nucleic acid by following its amplification.

Another data set deals with DENV-2 strain 16681. Kind of data set: Tetravalent RT-qPCR assay, serotype 2. The format is cell-based. The settings on record: Dengue virus, DENV2, 72 h; RT-qPCR serotype 2 16681, Protocol A, Vero cells, day 3. Here is the method:
as §1, §2, §3, §4, §5

A further data set relates to DENV-3 strain H87. Kind of data set: Tetravalent RT-qPCR assay, serotype 3. The format is cell-based. The settings on record: Dengue virus, DENV3, 72 h; RT-qPCR serotype 3 H87, Protocol A, Vero cells, day 3. The procedure: as §1, §2, §3, §4, §5
Another data set deals with DENV-4 strain H241. The data set can be described thus: Tetravalent RT-qPCR assay, serotype 4. The format is cell-based. The settings on record: Dengue virus, DENV4, 72 h; RT-qPCR serotype 4 H241, Protocol A, Vero cells, day 3. The procedure: as §1, §2, §3, §4, §5
A short description of data set [1]: Cytotoxicity in RT-qPCR assay (Cp of housekeeping gene β-actin). The format is cell-based. Particulars: African green monkey. The procedure:
as §1, §2, §5

Data set [2] is described as follows: Toxicity on the same plates (ATPlite cell viability). The settings on record: African green monkey, CC50, Vero cells, same plates as DENV-2 antiviral assay.
A further data set has as its system Vero cells. The data set is described as above. Particulars: Vero cells, same plates as DENV-2 antiviral assay.
Where [3] appears, read: RT-qPCR serotype 1 TC974#666, Protocol A.
[4] abbreviates: RT-qPCR serotype 2 16681, Protocol A.
The mark [5] stands for this setting: RT-qPCR serotype 3 H87, Protocol A.
The mark [6] stands for this setting: RT-qPCR serotype 4 H241, Protocol A.

As a reminder, the EC50 is the concentration at which the effect is half-maximal. Lower therefore signals greater potency. What is called CC50 is the concentration giving 50% cytotoxicity. Low values mean greater toxicity to the cells, high ones lower toxicity to the cells. In the case of `COc1cc(NC(C(=O)c2c[nH]c3cc(OC)c(C(F)(F)F)cc23)c2ccc(F)cc2OC)cc(OCCO)c1` (single isomer, unassigned) [Compound 2A, 2-(4-fluoro-2-methoxyphenyl)-2-((3-(2-hydroxyethoxy)-5-methoxyphenyl)amino)-1-(6-methoxy-5-(trifluoromethyl)-1H-indol-3-yl)ethanone], the EC50 was determined as 0.45 nM in the data set with DENV-2 16681 strain; 2.2 nM with DENV-1 strain TC974 #666; 0.25 nM in the data set on DENV-2 strain 16681; 19 nM in the data set on DENV-3 strain H87; 62 nM in the data set on DENV-4 strain H241. Moreover, the CC50 at 3 days was > 2500 nM in data set [1] (setting [3]), 3200 nM in data set [1] (setting [4]), > 1900 nM in data set [1] (setting [5]) and > 2100 nM in data set [1] (setting [6]). Besides, half-maximal cytotoxicity in data set [2] (CC50) was put at 3500 nM.

Take `COc1cc(NC(C(=O)c2c[nH]c3c(C)cc(OC(F)(F)F)cc23)c2ccc(F)cc2OC)cc(OCCO)c1` (single isomer, unassigned) [Compound 8A, 2-(4-fluoro-2-methoxyphenyl)-2-((3-(2-hydroxyethoxy)-5-methoxyphenyl)amino)-1-(7-methyl-5-(trifluoromethoxy)-1H-indol-3-yl)ethanone]: the EC50 with DENV-2 16681 strain turned out to be 0.35 nM; in the data set with DENV-1 strain TC974 #666 it was 0.71 nM; with DENV-2 strain 16681, 0.31 nM; in the data set on DENV-3 strain H87, 5.8 nM; in the data set with DENV-4 strain H241, 48 nM. Moreover, the CC50 at 3 days in data set [1] (setting [3]) is 2100 nM; in data set [1] (setting [4]), 3700 nM; in data set [1] (setting [5]), > 2400 nM; in data set [1] (setting [6]) it was 2600 nM. In the data set on Vero cells, this molecule gave a CC50 of 2900 nM.

For `COc1cc(NC(C(=O)c2c[nH]c3ccc(C(F)(F)F)cc23)c2ccc(Cl)cc2OC)cc(OCCO)c1` (single isomer, unassigned) [Compound 9B, 2-(4-chloro-2-methoxyphenyl)-2-((3-(2-hydroxyethoxy)-5-methoxyphenyl)amino)-1-(5-(trifluoromethyl)-1H-indol-3-yl)ethanone], the EC50 in the data set with DENV-2 16681 strain is 0.18 nM; with DENV-1 strain TC974 #666, 0.88 nM; with DENV-2 strain 16681, 0.27 nM; in the data set with DENV-3 strain H87, 6.3 nM; with DENV-4 strain H241, 50 nM. The CC50 at 3 days is > 2000 nM in data set [1] (setting [3]), 3400 nM in data set [1] (setting [4]), > 2500 nM in data set [1] (setting [5]) and 2700 nM in data set [1] (setting [6]). In addition, half-maximal cytotoxicity in the data set with Vero cells (CC50) was put at 3300 nM.

Consider `COc1cc(NC(C(=O)c2c[nH]c3cc(F)c(C(F)(F)F)cc23)c2ccc(Cl)cc2OC)cc(OCCO)c1` (single isomer, unassigned) [Compound 11A, 2-(4-chloro-2-methoxyphenyl)-1-(6-fluoro-5-(trifluoromethyl)-1H-indol-3-yl)-2-((3-(2-hydroxyethoxy)-5-methoxyphenyl)amino)ethanone], for which the EC50 in the data set on DENV-2 16681 strain was determined as 0.33 nM; in the data set with DENV-1 strain TC974 #666, 0.69 nM; in the data set on DENV-2 strain 16681 it was 0.24 nM; in the data set with DENV-3 strain H87, 5.7 nM; with DENV-4 strain H241, 39 nM. Further, the CC50 at 3 days in data set [1] (setting [3]) is > 2500 nM; in data set [1] (setting [4]), > 2500 nM; in data set [1] (setting [5]) it was > 2500 nM; in data set [1] (setting [6]) it was 1900 nM. In addition, the CC50 in data set [2] was 2500 nM.

For the molecule `COc1cc(NC(C(=O)c2c[nH]c3c(C)cc(C(F)(F)F)cc23)c2ccc(Cl)cc2OC)cc(OCCO)c1` (single isomer, unassigned) [Compound 12A, 2-(4-chloro-2-methoxyphenyl)-2-((3-(2-hydroxyethoxy)-5-methoxyphenyl)amino)-1-(7-methyl-5-(trifluoromethyl)-1H-indol-3-yl)ethanone], the EC50 in the data set with DENV-2 16681 strain stood at 0.16 nM; in the data set with DENV-1 strain TC974 #666, 0.4 nM; with DENV-2 strain 16681 it was 0.22 nM; in the data set on DENV-3 strain H87 it was 3.9 nM; in the data set on DENV-4 strain H241, 30 nM. For the same molecule, the CC50 at 3 days was > 2500 nM in data set [1] (setting [3]), > 2500 nM in data set [1] (setting [4]), > 2500 nM in data set [1] (setting [5]) and > 2400 nM in data set [1] (setting [6]). Further, the midpoint of cytotoxicity in the data set with Vero cells, the CC50, lay at 2600 nM.

Turning to `COc1cc(NC(C(=O)c2c[nH]c3cc(OC)c(OC(F)(F)F)cc23)c2ccc(Cl)cc2OC)cc(OCCO)c1` (single isomer, unassigned) [Compound 14A, 2-(4-chloro-2-methoxyphenyl)-2-((3-(2-hydroxyethoxy)-5-methoxyphenyl)amino)-1-(6-methoxy-5-(trifluoromethoxy)-1H-indol-3-yl)ethanone], the EC50 in the data set with DENV-2 16681 strain amounted to 0.17 nM; in the data set on DENV-1 strain TC974 #666 it was 0.92 nM; in the data set with DENV-2 strain 16681, 0.17 nM; in the data set with DENV-3 strain H87, 5.1 nM; in the data set on DENV-4 strain H241 it was 25 nM. The CC50 at 3 days is > 2100 nM in data set [1] (setting [3]), 3800 nM in data set [1] (setting [4]), > 2300 nM in data set [1] (setting [5]) and 1600 nM in data set [1] (setting [6]). This molecule also had a CC50 in the data set on Vero cells of 2500 nM.

On to `COc1cc(NC(C(=O)c2c[nH]c3cc(F)c(OC(F)(F)F)cc23)c2ccc(Cl)cc2OC)cc(OCCO)c1` (single isomer, unassigned) [Compound 15B, 2-(4-chloro-2-methoxyphenyl)-1-(6-fluoro-5-(trifluoromethoxy)-1H-indol-3-yl)-2-((3-(2-hydroxyethoxy)-5-methoxyphenyl)amino)ethanone], for which the EC50 in the data set on DENV-2 16681 strain turned out to be 0.29 nM; in the data set on DENV-1 strain TC974 #666, 0.46 nM; in the data set on DENV-2 strain 16681, 0.15 nM; with DENV-3 strain H87 it was 3.2 nM; with DENV-4 strain H241, 31 nM. The CC50 at 3 days in data set [1] (setting [3]) was 1500 nM; in data set [1] (setting [4]) it was > 2100 nM; in data set [1] (setting [5]) it was > 2400 nM; in data set [1] (setting [6]), 1600 nM. In the data set on Vero cells, this molecule came in with a CC50 of 2600 nM.

As for `COc1cc(NC(C(=O)c2c[nH]c3c(C)cc(OC(F)(F)F)cc23)c2ccc(Cl)cc2OC)cc(OCCO)c1` (single isomer, unassigned) [Compound 16A, 2-(4-chloro-2-methoxyphenyl)-2-((3-(2-hydroxyethoxy)-5-methoxyphenyl)amino)-1-(7-methyl-5-(trifluoromethoxy)-1H-indol-3-yl)ethanone], the EC50 in the data set on DENV-2 16681 strain worked out at 0.098 nM; in the data set on DENV-1 strain TC974 #666, 0.63 nM; in the data set with DENV-2 strain 16681 it was 0.15 nM; with DENV-3 strain H87, 1.7 nM; with DENV-4 strain H241, 17 nM. For the same molecule, the CC50 at 3 days was > 2500 nM in data set [1] (setting [3]), > 2500 nM in data set [1] (setting [4]), > 2500 nM in data set [1] (setting [5]) and > 2000 nM in data set [1] (setting [6]). Moreover, it took 2400 nM to reach half-maximal cytotoxicity in data set [2] (CC50).
